Assay results from PubChem BioAssay AID2060617 (Molecular Pharmacology Branch, DTP, NCI, 2025).

Tested on: 485368-065-R4-J2-PDC spheroids with HUVEC/MSC, viability
Test: Anticancer human tumor 485368-065-R4-J2-PDC patient-derived pancreatic carcinoma cell line growth inhibition [CLK]
Settings: for IC50: curve of first compound; for viability, T/C: stronger effect = lower value
Procedure, shortened: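 Multi-cell-type spheroids combined patient-derived tumor cells with HUVEC endothelial cells and human mesenchymal stem cells. Paired agents were dosed in half-log steps down from about clinical Cmax, or from 10 microM where Cmax was unknown.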

[1] = second compound 0.0316 µM, first compound 0.0316 µM
[2] = second compound 0.0316 µM, first compound 0.1 µM
[3] = second compound 0.0316 µM, first compound 0.316 µM
[4] = second compound 0.0316 µM, first compound 1 µM
[5] = second compound 0.0316 µM, first compound 3.16 µM
[6] = second compound 0.0316 µM, first compound 10 µM
[7] = second compound 0.1 µM, first compound 0.0316 µM
[8] = second compound 0.1 µM, first compound 0.1 µM
[9] = second compound 0.1 µM, first compound 0.316 µM
[10] = second compound 0.1 µM, first compound 1 µM
[11] = second compound 0.1 µM, first compound 3.16 µM
[12] = second compound 0.1 µM, first compound 10 µM
[13] = second compound 0.316 µM, first compound 0.0316 µM
[14] = second compound 0.316 µM, first compound 0.1 µM
[15] = second compound 0.316 µM, first compound 0.316 µM
[16] = second compound 0.316 µM, first compound 1 µM
[17] = second compound 0.316 µM, first compound 3.16 µM
[18] = second compound 0.316 µM, first compound 10 µM
[19] = second compound 1 µM, first compound 0.0316 µM
[20] = second compound 1 µM, first compound 0.1 µM
[21] = second compound 1 µM, first compound 0.316 µM
[22] = second compound 1 µM, first compound 1 µM
[23] = second compound 1 µM, first compound 3.16 µM
[24] = second compound 1 µM, first compound 10 µM
[25] = second compound 3.16 µM, first compound 0.0316 µM
[26] = second compound 3.16 µM, first compound 0.1 µM
[27] = second compound 3.16 µM, first compound 0.316 µM
[28] = second compound 3.16 µM, first compound 1 µM
[29] = second compound 3.16 µM, first compound 3.16 µM
[30] = second compound 3.16 µM, first compound 10 µM
[31] = second compound 10 µM, first compound 0.0316 µM
[32] = second compound 10 µM, first compound 0.1 µM
[33] = second compound 10 µM, first compound 0.316 µM
[34] = second compound 10 µM, first compound 1 µM
[35] = second compound 10 µM, first compound 3.16 µM
[36] = second compound 10 µM, first compound 10 µM
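Note: spheroids exposed to compounds for seven days.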
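Throughout, for viability, T/C: 100% = DMSO vehicle control wells.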

## C#Cc1c(F)ccc2cc(O)cc(-c3ncc4c(N5CC6CCC(C5)N6)nc(OCC56CCCN5CC(F)C6)nc4c3F)c12 (stereo not drawn) + CN1CCN(c2cc(C(=O)Nc3cc4cc(-c5cnn(C)c5)ccc4cn3)ccn2)CC1
Second compound 0.0316 µM
  IC50: > 10000 nM
Second compound 0.1 µM
  IC50: > 10000 nM
Second compound 0.316 µM
  IC50: 9710 nM
Second compound 1 µM
  IC50: < 31.6 nM
Second compound 3.16 µM
  IC50: < 31.6 nM
Second compound 10 µM
  IC50: < 31.6 nM
[1]
  viability, T/C: 94.6%
[2]
  viability, T/C: 106%
[3]
  viability, T/C: 96.7%
[4]
  viability, T/C: 116%
[5]
  viability, T/C: 107%
[6]
  viability, T/C: 117%
[7]
  viability, T/C: 112%
[8]
  viability, T/C: 115%
[9]
  viability, T/C: 96.3%
[10]
  viability, T/C: 111%
[11]
  viability, T/C: 96%
[12]
  viability, T/C: 75.8%
[13]
  viability, T/C: 90.3%
[14]
  viability, T/C: 90.9%
[15]
  viability, T/C: 82.5%
[16]
  viability, T/C: 80.7%
[17]
  viability, T/C: 68.6%
[18]
  viability, T/C: 49.3%
[19]
  viability, T/C: 3.21%
[20]
  viability, T/C: 2.21%
[21]
  viability, T/C: 1.7%
[22]
  viability, T/C: 2.24%
[23]
  viability, T/C: 1.78%
[24]
  viability, T/C: 1.33%
[25]
  viability, T/C: 1.18%
[26]
  viability, T/C: 1.09%
[27]
  viability, T/C: 1.08%
[28]
  viability, T/C: 1.21%
[29]
  viability, T/C: 1.29%
[30]
  viability, T/C: 1.21%
[31]
  viability, T/C: 1.44%
[32]
  viability, T/C: 2.45%
[33]
  viability, T/C: 1.6%
[34]
  viability, T/C: 1.34%
[35]
  viability, T/C: 2.21%
[36]
  viability, T/C: 1.87%

## CC(CO)NC(=O)c1cc(-c2ccc(Cl)cc2)nn(-c2cnn(C)c2)c1=O (stereo not drawn) + CN1CCN(c2cc(C(=O)Nc3cc4cc(-c5cnn(C)c5)ccc4cn3)ccn2)CC1
Second compound 0.0316 µM
  IC50: > 10000 nM
Second compound 0.1 µM
  IC50: > 10000 nM
Second compound 0.316 µM
  IC50: > 10000 nM
Second compound 1 µM
  IC50: < 31.6 nM
Second compound 3.16 µM
  IC50: < 31.6 nM
Second compound 10 µM
  IC50: < 31.6 nM
[1]
  viability, T/C: 91.7%
[2]
  viability, T/C: 106%
[3]
  viability, T/C: 99.8%
[4]
  viability, T/C: 105%
[5]
  viability, T/C: 104%
[6]
  viability, T/C: 101%
[7]
  viability, T/C: 114%
[8]
  viability, T/C: 116%
[9]
  viability, T/C: 108%
[10]
  viability, T/C: 116%
[11]
  viability, T/C: 105%
[12]
  viability, T/C: 99.3%
[13]
  viability, T/C: 87.2%
[14]
  viability, T/C: 87.9%
[15]
  viability, T/C: 91%
[16]
  viability, T/C: 82.5%
[17]
  viability, T/C: 78.1%
[18]
  viability, T/C: 79.1%
[19]
  viability, T/C: 1.07%
[20]
  viability, T/C: 2.15%
[21]
  viability, T/C: 1.7%
[22]
  viability, T/C: 1.69%
[23]
  viability, T/C: 1.72%
[24]
  viability, T/C: 2.66%
[25]
  viability, T/C: 2.09%
[26]
  viability, T/C: 1.46%
[27]
  viability, T/C: 1.34%
[28]
  viability, T/C: 1.32%
[29]
  viability, T/C: 1.45%
[30]
  viability, T/C: 3.08%
[31]
  viability, T/C: 1.44%
[32]
  viability, T/C: 4.18%
[33]
  viability, T/C: 1.35%
[34]
  viability, T/C: 1.26%
[35]
  viability, T/C: 2.31%
[36]
  viability, T/C: 1.01%

## CC(Nc1ccc2c(c1)OCCn1cc(N3C(=O)OCC3C(F)F)nc1-2)C(N)=O (stereo not drawn) + CN1CCN(c2cc(C(=O)Nc3cc4cc(-c5cnn(C)c5)ccc4cn3)ccn2)CC1
Second compound 0.0316 µM
  IC50: > 10000 nM
Second compound 0.1 µM
  IC50: > 10000 nM
Second compound 0.316 µM
  IC50: 158 nM
Second compound 1 µM
  IC50: < 31.6 nM
Second compound 3.16 µM
  IC50: < 31.6 nM
Second compound 10 µM
  IC50: < 31.6 nM
[1]
  viability, T/C: 92.4%
[2]
  viability, T/C: 109%
[3]
  viability, T/C: 103%
[4]
  viability, T/C: 83.3%
[5]
  viability, T/C: 78.8%
[6]
  viability, T/C: 62.3%
[7]
  viability, T/C: 98.7%
[8]
  viability, T/C: 95.5%
[9]
  viability, T/C: 93%
[10]
  viability, T/C: 68.8%
[11]
  viability, T/C: 58.6%
[12]
  viability, T/C: 53.4%
[13]
  viability, T/C: 68.9%
[14]
  viability, T/C: 55.8%
[15]
  viability, T/C: 41.9%
[16]
  viability, T/C: 30.3%
[17]
  viability, T/C: 27.2%
[18]
  viability, T/C: 20.7%
[19]
  viability, T/C: 1.25%
[20]
  viability, T/C: 1.05%
[21]
  viability, T/C: 0.92%
[22]
  viability, T/C: 0.74%
[23]
  viability, T/C: 1.65%
[24]
  viability, T/C: 1.84%
[25]
  viability, T/C: 2.26%
[26]
  viability, T/C: 1.12%
[27]
  viability, T/C: 3.5%
[28]
  viability, T/C: 2.02%
[29]
  viability, T/C: 2.42%
[30]
  viability, T/C: 2.95%
[31]
  viability, T/C: 1.54%
[32]
  viability, T/C: 2.13%
[33]
  viability, T/C: 2.05%
[34]
  viability, T/C: 2.62%
[35]
  viability, T/C: 2.43%
[36]
  viability, T/C: 2.04%

## COc1c(OCCCN2CCOCC2)ccc2c3n(c(=NC(=O)c4cnc(N)nc4)nc12)CCN3 + CN1CCN(c2cc(C(=O)Nc3cc4cc(-c5cnn(C)c5)ccc4cn3)ccn2)CC1
Second compound 0.0316 µM
  IC50: 245 nM
Second compound 0.1 µM
  IC50: 117 nM
Second compound 0.316 µM
  IC50: 22 nM
Second compound 1 µM
  IC50: < 3.16 nM
Second compound 3.16 µM
  IC50: < 3.16 nM
Second compound 10 µM
  IC50: < 3.16 nM
Second compound 0.0316 µM, first compound 0.00316 µM
  viability, T/C: 102%
Second compound 0.0316 µM, first compound 0.01 µM
  viability, T/C: 113%
[1]
  viability, T/C: 85.8%
[2]
  viability, T/C: 71.3%
[3]
  viability, T/C: 42%
[4]
  viability, T/C: 37.8%
Second compound 0.1 µM, first compound 0.00316 µM
  viability, T/C: 93.7%
Second compound 0.1 µM, first compound 0.01 µM
  viability, T/C: 99.9%
[7]
  viability, T/C: 82.7%
[8]
  viability, T/C: 53.7%
[9]
  viability, T/C: 32.4%
[10]
  viability, T/C: 33.2%
Second compound 0.316 µM, first compound 0.00316 µM
  viability, T/C: 69.4%
Second compound 0.316 µM, first compound 0.01 µM
  viability, T/C: 61.1%
[13]
  viability, T/C: 45.1%
[14]
  viability, T/C: 22.4%
[15]
  viability, T/C: 16.4%
[16]
  viability, T/C: 22.5%
Second compound 1 µM, first compound 0.00316 µM
  viability, T/C: 2.4%
Second compound 1 µM, first compound 0.01 µM
  viability, T/C: 1.65%
[19]
  viability, T/C: 1.92%
[20]
  viability, T/C: 0.96%
[21]
  viability, T/C: 1.07%
[22]
  viability, T/C: 5.51%
Second compound 3.16 µM, first compound 0.00316 µM
  viability, T/C: 1.02%
Second compound 3.16 µM, first compound 0.01 µM
  viability, T/C: 2.04%
[25]
  viability, T/C: 1.56%
[26]
  viability, T/C: 1.95%
[27]
  viability, T/C: 2.07%
[28]
  viability, T/C: 1.38%
Second compound 10 µM, first compound 0.00316 µM
  viability, T/C: 1.34%
Second compound 10 µM, first compound 0.01 µM
  viability, T/C: 2.28%
[31]
  viability, T/C: 3.18%
[32]
  viability, T/C: 3.27%
[33]
  viability, T/C: 2.35%
[34]
  viability, T/C: 2%
